Data on 54 molecules can be found in patent US8993483B2, “Combination of active substances with insecticidal properties” (Bayer Intellectual Property GmbH, priority 2003, dated 2015).

One may read the melting point as the temperature, or range, at which the solid turns liquid.

For the molecule `CCNC(=O)c1cc(Cl)cc(C)c1NC(=O)c1cc(OCC(F)(F)F)nn1-c1ncccc1Cl`, the melting point was 205 to 207 °C.

`CC(C)NC(=O)c1cc(Cl)cc(Cl)c1NC(=O)c1cc(OCC(F)(F)F)nn1-c1ncccc1Cl` registered a melting point of 232 to 235 °C. For `CC(C)(C)NC(=O)c1cc(Br)cc(Br)c1NC(=O)c1cc(Br)nn1-c1ncccc1Cl` the value was 194 to 196 °C; for `CCNC(=O)c1cc(Br)cc(Br)c1NC(=O)c1cc(C(F)(F)F)nn1-c1ncccc1Cl`, 188 to 189 °C; for `Cc1cc(I)cc(C(=O)NC(C)C)c1NC(=O)c1cc(C(F)(F)F)nn1-c1ncccc1Cl`, 188 to 189 °C. With `CN(C)C(=O)c1cc(Cl)cc(Cl)c1NC(=O)c1cc(Br)nn1-c1ncccc1Cl`, the melting point fell in the range of 216 to 218 °C. With `CN(C)C(=O)c1cc(Cl)cc(Cl)c1NC(=O)c1cc(C(F)(F)F)nn1-c1ncccc1Cl` the figure was 225 to 227 °C; with `CCNC(=O)c1cc(Br)cc(C)c1NC(=O)c1cc(Br)nn1-c1ncccc1Cl`, 194 to 196 °C; with `CCNC(=O)c1cc(Cl)cc(C)c1NC(=O)c1cc(Cl)nn1-c1ncccc1Cl`, 199 to 200 °C. With `CC(C)(C)NC(=O)c1cc(Br)cc(Br)c1NC(=O)c1cc(Cl)nn1-c1ncccc1Cl` the figure was 210 to 212 °C; with `CC(C)NC(=O)c1cc(Cl)cc(Cl)c1NC(=O)c1cc(C(F)(F)F)nn1-c1ncccc1Cl`, 200 to 201 °C. With `Cc1cc(Cl)cc(C(=O)NC(C)(C)C)c1NC(=O)c1cc(C(F)(F)F)nn1-c1ncccc1Cl` the figure was 223 to 225 °C. As for `Cc1cc(Br)cc(C(=O)NC(C)(C)C)c1NC(=O)c1cc(C(F)(F)F)nn1-c1ncccc1Cl`, the melting point lay within 247 to 248 °C. `CNC(=O)c1cc(Cl)cc(C)c1NC(=O)c1cc(OCC(F)(F)F)nn1-c1ncccc1Cl` registered a melting point of 207 to 208 °C. With `CC(C)(C)NC(=O)c1cc(Cl)cc(Cl)c1NC(=O)c1cc(Cl)nn1-c1ncccc1Cl` the figure was 172 to 173 °C; with `Cc1cc(Br)cc(C(=O)NC(C)(C)C)c1NC(=O)c1cc(Cl)nn1-c1ncccc1Cl`, 224 to 225 °C. With `CCNC(=O)c1cc(Br)cc(C)c1NC(=O)c1cc(Cl)nn1-c1ncccc1Cl` the figure was 192 to 194 °C; with `Cc1cc(Cl)cc(C(=O)NC(C)(C)C)c1NC(=O)c1cc(Br)nn1-c1ncccc1Cl`, 159 to 161 °C. `CNC(=O)c1cc(Cl)cc(Cl)c1NC(=O)c1cc(OCC(F)(F)F)nn1-c1ncccc1Cl` gave a melting point of 192 to 195 °C. For `Cc1cc(Br)cc(C(=O)NC(C)C)c1NC(=O)c1cc(Cl)nn1-c1ncccc1Cl` the value was 152 to 153 °C; for `Cc1cc(I)cc(C(=O)NC(C)(C)C)c1NC(=O)c1cc(C(F)(F)F)nn1-c1ncccc1Cl`, 242 to 243 °C; for `CCNC(=O)c1cc(I)cc(C)c1NC(=O)c1cc(C(F)(F)F)nn1-c1ncccc1Cl`, 199 to 200 °C. With `CNC(=O)c1cc(Br)cc(Br)c1NC(=O)c1cc(Cl)nn1-c1ncccc1Cl` the figure was 188 to 190 °C; with `CNC(=O)c1cc(Cl)cc(C)c1NC(=O)c1cc(Cl)nn1-c1ncccc1Cl`, 225 to 226 °C; with `CCNC(=O)c1cc(Cl)cc(Cl)c1NC(=O)c1cc(C(F)(F)F)nn1-c1ncccc1Cl`, 201 to 202 °C. Turning to `CNC(=O)c1cc(Cl)cc(Cl)c1NC(=O)c1cc(C(F)(F)F)nn1-c1ncccc1Cl`, the melting point is 155 to 157 °C.

In the case of `CC(C)NC(=O)c1cc(Cl)cc(Cl)c1NC(=O)c1cc(Br)nn1-c1ncccc1Cl`, the melting point lay within 188 to 190 °C. With `Cc1cc(Cl)cc(C(=O)NC(C)(C)C)c1NC(=O)c1cc(Cl)nn1-c1ncccc1Cl` the figure was 163 to 165 °C. With `CNC(=O)c1cc(Cl)cc(Cl)c1NC(=O)c1cc(Br)nn1-c1ncccc1Cl` the figure was 245 to 246 °C; with `CN(C)C(=O)c1cc(Cl)cc(Cl)c1NC(=O)c1cc(Cl)nn1-c1ncccc1Cl`, 231 to 232 °C; with `CCNC(=O)c1cc(I)cc(C)c1NC(=O)c1cc(Cl)nn1-c1ncccc1Cl`, 196 to 197 °C. With `Cc1cc(Br)cc(C(=O)NC(C)C)c1NC(=O)c1cc(C(F)(F)F)nn1-c1ncccc1Cl` the figure was 197 to 198 °C; with `CCNC(=O)c1cc(Cl)cc(Cl)c1NC(=O)c1cc(Br)nn1-c1ncccc1Cl`, 214 to 215 °C. `CNC(=O)c1cc(Br)cc(Br)c1NC(=O)c1cc(C(F)(F)F)nn1-c1ncccc1Cl` yielded a melting point of 162 to 163 °C.

In turn, `CNC(=O)c1cc(Br)cc(Br)c1NC(=O)c1cc(Br)nn1-c1ncccc1Cl` yielded a melting point of 166 to 168 °C. With `CCNC(=O)c1cc(Cl)cc(C)c1NC(=O)c1cc(C(F)(F)F)nn1-c1ncccc1Cl` the figure was 163 to 164 °C; with `CNC(=O)c1cc(Cl)cc(Cl)c1NC(=O)c1cc(Cl)nn1-c1ncccc1Cl`, 205 to 206 °C. With `CNC(=O)c1cc(I)cc(C)c1NC(=O)c1cc(Cl)nn1-c1ncccc1Cl` the figure was 233 to 234 °C; with `Cc1cc(Br)cc(C(=O)NC(C)C)c1NC(=O)c1cc(Br)nn1-c1ncccc1Cl`, 185 to 187 °C; with `CNC(=O)c1cc(Br)cc(C)c1NC(=O)c1cc(Br)nn1-c1ncccc1Cl`, 147 to 149 °C.

The molecule `CNC(=O)c1cc(I)cc(C)c1NC(=O)c1cc(Br)nn1-c1ncccc1Cl` had a melting point of 229 to 230 °C.

`CN(C)C(=O)c1cc(Br)cc(Br)c1NC(=O)c1cc(C(F)(F)F)nn1-c1ncccc1Cl` came in with a melting point of 228 to 229 °C. Molecule `CC(C)NC(=O)c1cc(Cl)cc(Cl)c1NC(=O)c1cc(Cl)nn1-c1ncccc1Cl` gave a melting point of 197 to 199 °C. With `CCNC(=O)c1cc(Br)cc(C)c1NC(=O)c1cc(C(F)(F)F)nn1-c1ncccc1Cl` the figure was 192 to 193 °C. With `CCNC(=O)c1cc(Br)cc(Br)c1NC(=O)c1cc(Br)nn1-c1ncccc1Cl` the figure was 196 to 197 °C; with `CC(C)NC(=O)c1cc(Br)cc(Br)c1NC(=O)c1cc(Cl)nn1-c1ncccc1Cl`, 197 to 199 °C. `Cc1cc(Cl)cc(C(=O)NC(C)C)c1NC(=O)c1cc(OCC(F)(F)F)nn1-c1ncccc1Cl` yielded a melting point of 217 to 218 °C. With `Cc1cc(Br)cc(C(=O)NC(C)(C)C)c1NC(=O)c1cc(Br)nn1-c1ncccc1Cl` the figure was 215 to 221 °C; with `CNC(=O)c1cc(I)cc(C)c1NC(=O)c1cc(C(F)(F)F)nn1-c1ncccc1Cl`, 199 to 200 °C; with `CCNC(=O)c1cc(Cl)cc(C)c1NC(=O)c1cc(Br)nn1-c1ncccc1Cl`, 194 to 195 °C.

`Cc1cc(I)cc(C(=O)NC(C)C)c1NC(=O)c1cc(Br)nn1-c1ncccc1Cl` displayed a melting point of 191 to 192 °C.

On to `CN(C)C(=O)c1cc(Br)cc(Br)c1NC(=O)c1cc(Cl)nn1-c1ncccc1Cl`, for which the melting point lay in the range of 153 to 155 °C.

For `CC(C)(C)NC(=O)c1cc(Br)cc(Br)c1NC(=O)c1cc(C(F)(F)F)nn1-c1ncccc1Cl`, the melting point was 246 to 247 °C. The molecule `CC(C)(C)NC(=O)c1cc(Cl)cc(Cl)c1NC(=O)c1cc(C(F)(F)F)nn1-c1ncccc1Cl` had a melting point of 170 to 172 °C.
